Assay results taken from ChEMBL document CHEMBL3785079, “Structure-Activity Study of Bioisosteric Trifluoromethyl and Pentafluorosulfanyl Indole Inhibitors of the AAA ATPase p97” (ACS Med Chem Lett, 2015).

Target: Transitional endoplasmic reticulum ATPase (Homo sapiens, UniProt P55072)
Assay: Inhibition of wild type human AAA ATPase p97 expressed in Escherichia coli measured by ADPGlo assay in presence of 100 uM ATP

Chain of Transitional endoplasmic reticulum ATPase (P55072 whole entry): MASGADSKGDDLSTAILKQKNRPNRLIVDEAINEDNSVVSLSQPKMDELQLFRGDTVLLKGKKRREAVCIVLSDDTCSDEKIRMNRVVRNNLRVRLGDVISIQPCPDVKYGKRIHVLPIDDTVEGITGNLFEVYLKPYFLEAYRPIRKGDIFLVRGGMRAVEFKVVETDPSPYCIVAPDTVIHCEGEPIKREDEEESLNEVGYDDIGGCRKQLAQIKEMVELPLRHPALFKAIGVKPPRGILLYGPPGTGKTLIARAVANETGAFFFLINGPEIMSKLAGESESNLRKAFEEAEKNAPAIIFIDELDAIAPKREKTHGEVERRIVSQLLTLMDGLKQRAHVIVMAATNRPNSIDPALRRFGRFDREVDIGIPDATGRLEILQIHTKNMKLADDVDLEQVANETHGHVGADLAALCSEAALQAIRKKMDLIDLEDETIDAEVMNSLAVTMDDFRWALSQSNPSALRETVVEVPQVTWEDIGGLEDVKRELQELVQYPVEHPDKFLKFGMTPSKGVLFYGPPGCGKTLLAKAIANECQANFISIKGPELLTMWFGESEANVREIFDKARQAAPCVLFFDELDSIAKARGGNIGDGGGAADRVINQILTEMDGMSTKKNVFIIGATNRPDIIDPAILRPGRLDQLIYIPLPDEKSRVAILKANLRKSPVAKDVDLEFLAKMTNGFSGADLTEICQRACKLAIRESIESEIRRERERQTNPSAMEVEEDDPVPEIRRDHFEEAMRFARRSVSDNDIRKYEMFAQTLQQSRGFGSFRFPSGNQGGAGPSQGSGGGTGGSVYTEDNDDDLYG

Structure (SMILES) | IC50 [nM]
Cc1ccc2[nH]c(-c3cccc(N4CCC(NCCN5CCN(C(C)C)CC5)CC4)c3)cc2c1 | 240
COc1ccc2[nH]c(-c3cccc(N4CCC(NCCN5CCN(C(C)C)CC5)CC4)c3)cc2c1 | 710
CC(C)N1CCN(CCNC2CCN(c3cccc(-c4cc5cc(C(F)(F)F)ccc5[nH]4)c3)CC2)CC1 | 4700
CC(C)N1CCN(CCNC2CCN(c3cccc(-c4cc5cc(OC(F)(F)F)ccc5[nH]4)c3)CC2)CC1 | 3800
CC(C)N1CCN(CCNC2CCN(c3cccc(-c4cc5cc([N+](=O)[O-])ccc5[nH]4)c3)CC2)CC1 | 50
CC(C)N1CCN(CCNC2CCN(c3cccc(-c4cc5cc(S(F)(F)(F)(F)F)ccc5[nH]4)c3)CC2)CC1 | 21500
